{"source": "patent US20220313629A1", "about": "“TRANSIENT POTENTIAL MELASTATIN 8 (TRPM8) ANTAGONISTS AND RELATED METHODS” (MARSHALL UNIVERSITY RESEARCH CORPORATION, priority 2019, published 2022)", "key": {"human TRPV1": {"molecular_target": "human TRPV1 (Homo sapiens, UniProt Q8NER1)", "sequence (Q8NER1 whole entry)": "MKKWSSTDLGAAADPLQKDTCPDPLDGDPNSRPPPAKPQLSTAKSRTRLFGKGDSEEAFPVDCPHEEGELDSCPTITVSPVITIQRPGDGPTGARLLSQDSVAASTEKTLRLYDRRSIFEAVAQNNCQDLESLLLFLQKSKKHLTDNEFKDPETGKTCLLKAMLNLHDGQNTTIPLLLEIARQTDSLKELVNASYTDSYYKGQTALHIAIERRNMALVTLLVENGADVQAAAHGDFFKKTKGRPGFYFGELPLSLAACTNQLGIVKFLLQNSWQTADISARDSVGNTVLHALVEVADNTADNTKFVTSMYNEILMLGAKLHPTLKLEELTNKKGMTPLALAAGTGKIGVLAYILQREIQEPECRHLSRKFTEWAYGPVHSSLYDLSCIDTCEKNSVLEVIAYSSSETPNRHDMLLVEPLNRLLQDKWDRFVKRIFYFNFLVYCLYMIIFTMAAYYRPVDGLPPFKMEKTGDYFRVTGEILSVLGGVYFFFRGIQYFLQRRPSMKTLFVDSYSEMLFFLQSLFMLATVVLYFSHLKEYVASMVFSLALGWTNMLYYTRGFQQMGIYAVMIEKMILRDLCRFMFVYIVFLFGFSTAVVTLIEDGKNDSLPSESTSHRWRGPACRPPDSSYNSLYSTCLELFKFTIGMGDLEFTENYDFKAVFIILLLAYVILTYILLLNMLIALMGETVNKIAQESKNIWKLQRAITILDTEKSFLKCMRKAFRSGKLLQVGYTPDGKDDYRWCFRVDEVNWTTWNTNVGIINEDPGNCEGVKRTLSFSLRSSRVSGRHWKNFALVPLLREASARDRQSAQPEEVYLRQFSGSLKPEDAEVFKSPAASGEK", "assay": "TRPV1 agonist and antagonist Ca2+ flux assay (FLIPR, Fluo-8) in HEK293 cells stably expressing human TRPV1", "assay_type": "cell-based", "conditions": "for hTRPV1 % Activation (n = 3): normalized to Emax of capsaicin (3 μM)"}, "TRPM8 [1]": {"molecular_target": "T1, TRPM8 (Homo sapiens, UniProt Q7Z2W7)", "assay": "TRPM8 antagonist activity by Fura-2 Ca2+ imaging in HEK-293 cells stably expressing human TRPM8", "assay_type": "cell-based", "conditions": "inhibition of icilin (500 nM)-evoked Ca2+ entry; HEK-293 cells stably expressing hTRPM8; mean ± SEM, three independent experiments; read-out: Functional Activity hTRPM8 potency IC50 ± SEM"}, "human TRPA1 [2]": {"molecular_target": "T2, human TRPA1 (Homo sapiens, UniProt O75762)", "T2 sequence (O75762 whole entry)": "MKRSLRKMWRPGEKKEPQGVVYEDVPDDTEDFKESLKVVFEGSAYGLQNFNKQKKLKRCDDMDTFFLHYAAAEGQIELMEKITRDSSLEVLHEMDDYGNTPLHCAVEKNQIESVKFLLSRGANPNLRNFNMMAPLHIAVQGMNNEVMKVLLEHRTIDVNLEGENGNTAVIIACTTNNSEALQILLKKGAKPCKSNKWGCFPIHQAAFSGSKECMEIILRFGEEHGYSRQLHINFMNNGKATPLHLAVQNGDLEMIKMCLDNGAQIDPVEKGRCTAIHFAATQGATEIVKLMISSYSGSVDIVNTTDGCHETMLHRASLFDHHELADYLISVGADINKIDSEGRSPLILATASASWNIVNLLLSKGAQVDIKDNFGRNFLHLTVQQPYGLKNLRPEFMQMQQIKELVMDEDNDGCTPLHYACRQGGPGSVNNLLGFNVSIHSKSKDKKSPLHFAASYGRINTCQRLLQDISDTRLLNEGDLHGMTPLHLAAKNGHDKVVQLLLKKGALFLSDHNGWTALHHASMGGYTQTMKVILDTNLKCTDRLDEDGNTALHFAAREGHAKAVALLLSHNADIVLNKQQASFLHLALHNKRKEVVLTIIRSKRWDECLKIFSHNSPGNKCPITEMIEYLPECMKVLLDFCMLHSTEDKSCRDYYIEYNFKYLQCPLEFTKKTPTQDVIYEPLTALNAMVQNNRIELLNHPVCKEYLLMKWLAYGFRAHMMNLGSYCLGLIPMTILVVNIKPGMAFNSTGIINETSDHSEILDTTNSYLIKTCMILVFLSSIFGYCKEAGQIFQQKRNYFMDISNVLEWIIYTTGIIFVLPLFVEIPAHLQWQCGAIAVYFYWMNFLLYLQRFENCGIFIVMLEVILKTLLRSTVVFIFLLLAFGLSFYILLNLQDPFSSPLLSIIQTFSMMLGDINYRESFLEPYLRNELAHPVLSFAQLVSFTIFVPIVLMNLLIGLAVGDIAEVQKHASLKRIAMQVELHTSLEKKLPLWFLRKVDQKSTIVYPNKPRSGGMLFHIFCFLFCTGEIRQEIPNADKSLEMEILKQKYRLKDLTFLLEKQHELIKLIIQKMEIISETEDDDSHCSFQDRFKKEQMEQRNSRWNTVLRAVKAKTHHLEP", "assay": "TRPA1 agonist and antagonist Ca2+ flux assay (FLIPR, Fluo-8) in HEK293 cells stably expressing human TRPA1", "assay_type": "cell-based", "conditions": "for hTRPA1 % Activation (n = 3-5): normalized to Emax of AITC (300 μM); for % Activation Mean ± SEM (n = 5), TRPA1 antagonist data (Percentage Inhibition Normalized to EC80 Control): vs EC80 of AITC"}, "TRPM8 [3]": {"molecular_target": "T1, TRPM8", "conditions": "literature value; read-out: IC50 in whole-cell patch-clamp assay (reported); cited from earlier work"}, "TRPM8 [4]": {"molecular_target": "T1, TRPM8", "conditions": "cited from earlier work"}, "human TRPA1 [5]": {"molecular_target": "T2, human TRPA1", "conditions": "vs. the effect of 80 μM AITC; read-out: IC50 at TRPA1 reported by Klionsky and colleagues; cited from earlier work"}, "[6]": {"assay": "Stability in liver microsomes", "assay_type": "in vitro ADME", "conditions": "mouse liver microsomes; CLint = k/P", "experimental": "Stability in liver microsomes. Male CD-1 mouse liver microsomes (Lot#1710069) were purchased from XenoTech. The reaction mixture, minus NADPH, was prepared as described below. Compound 14 was added into the reaction mixture at a final concentration of 1 μM. The control compound, testosterone, was run simultaneously with Compound 14 in a separate reaction. An aliquot of the reaction mixture (without cofactor) was equilibrated in a shaking water bath at 37° C. for 3 minutes. The reaction was initiated by the addition of the cofactor, and the mixture was incubated in a shaking water bath at 37° C. Aliquots (100 μL) were withdrawn at 0, 10, 20, 30, and 60 minutes. Compound 14 and testosterone samples were immediately combined with 400 μL of ice-cold 50/50 acetonitrile (ACN)/H2O containing 0.1% formic acid and internal standard to terminate the reaction. The samples were then mixed and centrifuged to precipitate proteins. All samples were assayed by LC-MS/MS using electrospray ionization. […] are compared to the PARR at time 0 to determine the percent remaining at each time point. Half-lives and intrinsic clearance were calculated using GraphPad software, fitting to a single-phase exponential decay equation.\nIn vitro metabolic stability. Compound 14 was evaluated for metabolic stability in mouse liver microsomes by Absorption Systems (Exton, Pa.), by determining the percent remaining at 0, 10, 20, 30 and 60 minutes when incubated with mouse liver microsomes in the presence of NADPH. The half-life (t1/2) and in vitro intrinsic clearance (CLint) of Compound 14 was calculated, in addition to the control (testosterone)."}, "TRPM8 [7]": {"molecular_target": "T1, TRPM8", "conditions": "different cell type (CHO vs HEK) or species (human versus mouse); read-out: previously-reported EC50 values; cited from earlier work"}, "TRPM8 [8]": {"molecular_target": "T1, TRPM8", "assay": "TRPM8 agonist (intrinsic) activity by Fura-2 Ca2+ imaging in HEK-293 cells stably expressing human TRPM8", "assay_type": "cell-based", "conditions": "HEK-293 cells stably expressing hTRPM8; read-out: EC50 (agonist-evoked Ca2+ influx at hTRPM8)"}, "[9]": {"conditions": "HEK293, read-out: hTRPV1 % Inhibition (n = 3)"}, "[10]": {"conditions": "at concentrations 13- to 25-fold higher than hTRPM8 IC50"}}, "note": "“And” between values parts separate entries of the source, which are not always exact repeats. Equal entries are not always repeated. Where two headings read alike, the source gives them in different places.", "data": [{"smiles": "O=C(NC12CC3CC(CC(C3)C1)C2)c1ccc(-c2ccccc2)cc1", "note": "[Compound 15, N-(adamantan-1-yl)-[1,1′-biphenyl]-4-carboxamide]", "values": [{"measurement": "inhibition at 0.03 µM", "setting": "human TRPV1; [9]", "result": "-6 ± 5", "unit": "%"}, {"measurement": "inhibition at 0.3 µM", "setting": "human TRPV1; [9]", "result": "3 ± 4", "unit": "%"}, {"measurement": "effect on hTRPV1-mediated responses (intrinsic and antagonist activity)", "setting": "human TRPV1; [10]", "result": "do not affect"}, {"measurement": "hTRPV1 % Activation (n = 3)", "setting": "human TRPV1; tested at 30 nM", "result": "1.0 ± 0.2", "unit": "%"}, {"measurement": "hTRPV1 % Activation (n = 3)", "setting": "human TRPV1; tested at 300 nM", "result": "1 ± 2", "unit": "%"}, {"measurement": "IC50", "setting": "TRPM8 [1]", "result": "16 ± 1", "unit": "nM"}, {"measurement": "inhibition at 0.3 µM", "setting": "human TRPA1 [2]; HEK293, read-out: hTRPA1 % Inhibition (n = 3)", "result": "-7 ± 7", "unit": "%"}, {"measurement": "effect on hTRPA1-mediated responses (intrinsic and antagonist activity)", "setting": "human TRPA1 [2]; [10]", "result": "do not affect"}, {"measurement": "hTRPA1 % Activation (n = 3-5)", "setting": "human TRPA1 [2]; tested at 30 nM", "result": "−2.6 ± 0.5", "unit": "%"}, {"measurement": "hTRPA1 % Activation (n = 3-5)", "setting": "human TRPA1 [2]; tested at 300 nM", "result": "−1.5 ± 0.4", "unit": "%"}]}, {"smiles": "COc1cc(CN(CCN)C(=O)OC(C)c2ccccc2)ccc1OCc1ccccc1", "note": "(stereo not drawn) [PBMC]", "values": [{"measurement": "IC50", "setting": "TRPM8 [3]", "result": "0.4 to 0.6", "unit": "nM"}]}, {"smiles": "C[C@H](c1ccc(F)cc1)N(Cc1cccc(C(=O)O)c1)C(=O)c1cnc2ccccc2c1", "note": "[PF-05105679]", "values": [{"measurement": "IC50", "setting": "TRPM8 [4]; literature, read-out: IC50, inhibition of WS-12-mediated activation at human TRPM8", "result": "181 ± 7.21", "unit": "nM"}, {"measurement": "IC50", "setting": "TRPM8 [4]; literature, read-out: IC50, inhibition of voltage-mediated activation at human TRPM8", "result": "103 ± 29.4", "unit": "nM"}, {"measurement": "IC50", "setting": "TRPM8 [4]; literature, read-out: hTRPM8 IC50 (reported Ca2+ flux activity)", "result": 181, "unit": "nM"}]}, {"smiles": "O=C(O)c1ccc(S(=O)(=O)N(Cc2ccc(OC(F)(F)F)cc2)c2ncc(C(F)(F)F)cc2Cl)cc1", "note": "[RQ-00203078, reference compound]", "values": [{"measurement": "IC50", "setting": "TRPM8 [4]; HEK cells expressing hTRPM8, read-out: IC50 previously reported against 30 μM menthol-evoked Ca2+ influx", "result": "~8", "unit": "nM"}, {"measurement": "reported potency at hTRPM8", "setting": "TRPM8 [4]; literature", "result": "< 10", "unit": "nM"}, {"measurement": "IC50", "setting": "TRPM8 [1]", "result": "2.96 nM and 3 nM"}]}, {"smiles": "N.N.N.N.N.N.N.N.N.N.N.N.N.N.[Cl-].[Cl-].[Cl-].[Cl-].[Cl-].[Cl-].[O-2].[O-2].[Ru+3].[Ru+3].[Ru+4]", "note": "[Ruthenium Red, reference compound]", "values": [{"measurement": "IC50", "setting": "human TRPA1 [5]", "result": "29 ± 6", "unit": "nM"}, {"measurement": "% Activation Mean ± SEM (n = 5), TRPA1 antagonist data (Percentage Inhibition Normalized to EC80 Control)", "setting": "human TRPA1 [2]; 3 nM", "result": "−6.0 ± 1.2", "unit": "%"}, {"measurement": "% Activation Mean ± SEM (n = 5), TRPA1 antagonist data (Percentage Inhibition Normalized to EC80 Control)", "setting": "human TRPA1 [2]; 10 nM", "result": "1.9 ± 2.4", "unit": "%"}, {"measurement": "% Activation Mean ± SEM (n = 5), TRPA1 antagonist data (Percentage Inhibition Normalized to EC80 Control)", "setting": "human TRPA1 [2]; 30 nM", "result": "5.8 ± 4.6", "unit": "%"}, {"measurement": "% Activation Mean ± SEM (n = 5), TRPA1 antagonist data (Percentage Inhibition Normalized to EC80 Control)", "setting": "human TRPA1 [2]; 100 nM", "result": "15.7 ± 9.8", "unit": "%"}, {"measurement": "% Activation Mean ± SEM (n = 5), TRPA1 antagonist data (Percentage Inhibition Normalized to EC80 Control)", "setting": "human TRPA1 [2]; 300 nM", "result": "91.1 ± 2.9", "unit": "%"}, {"measurement": "% Activation Mean ± SEM (n = 5), TRPA1 antagonist data (Percentage Inhibition Normalized to EC80 Control)", "setting": "human TRPA1 [2]; 1,000 nM", "result": "100.9 ± 0.1", "unit": "%"}, {"measurement": "% Activation Mean ± SEM (n = 5), TRPA1 antagonist data (Percentage Inhibition Normalized to EC80 Control)", "setting": "human TRPA1 [2]; 3,000 nM", "result": "100.9 ± 0.7", "unit": "%"}, {"measurement": "% Activation Mean ± SEM (n = 5), TRPA1 antagonist data (Percentage Inhibition Normalized to EC80 Control)", "setting": "human TRPA1 [2]; 10,000 nM", "result": "100.8 ± 0.3", "unit": "%"}, {"measurement": "IC50", "setting": "human TRPA1 [2]; AITC 10 μM, read-out: IC50, blockade of AITC-activated hTRPA1 responses", "result": "162 ± 33", "unit": "nM"}]}, {"smiles": "C[C@]12CC[C@H]3[C@@H](CCC4=CC(=O)CC[C@@]43C)[C@@H]1CC[C@@H]2O", "note": "[Testosterone, reference compound]", "values": [{"measurement": "CLint (mL/min/mg protein)", "setting": "[6]", "result": 0.372, "unit": "mL/min/mg protein"}]}, {"smiles": "O=C1NC(c2cccc([N+](=O)[O-])c2)=CCN1c1ccccc1O", "note": "[icilin, 3-(2-hydroxyphenyl)-6-(3-nitrophenyl)-3,4-dihydropyrimidin-2(1H)-one]", "values": [{"measurement": "EC50", "setting": "TRPM8 [7]", "result": "120 to 200", "unit": "nM"}, {"measurement": "EC50", "setting": "TRPM8 [8]", "result": "~70 nM and 74 nM"}]}]}
